Read-outs that look alike come from different tables or passages of the source.
Legend:
[1] = tested on: Z-138 cell line; test: Z-138 Proliferation Assay (Cell Titer Glo, 5 days); type: cell-based; conditions: Homo sapiens, read-out: Proliferation EC50
How it was run: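 Z-138 cells exposed 5 days at 37 °C, 5% CO2 to nine-point 3-fold dilutions (final top 20 μM, 0.2% DMSO), in triplicate. Viability read as ATP by CellTiter-Glo luminescence; IC50 from 4-parameter fit of normalized dose-response curves.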

[2] = tested on: symmetric di-methyl arginine in Z-138 cells; test: Z-138 Methylation Assay (In Cell Western for symmetric di-methyl arginine and DNA content); type: cell-based; conditions: Homo sapiens, read-out: ICW EC50
How it was run: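 Z-138 cells (50,000 cells/mL) treated with compound 96 h at 37 °C, then fixed and stained for symmetric di-methyl arginine (800 nm) with DRAQ5 DNA counterstain (700 nm) on Licor Odyssey.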

[3] = biological target: PRMT5/MEP50 (Homo sapiens (Human), UniProt O14744); test: PRMT5 Biochemical Assay (PRMT5/MEP50 enzyme assay on peptide substrate, 3H-SAM Flashplate)
Chain of PRMT5/MEP50 (O14744 other isoform, or with tags, fused parts or gaps): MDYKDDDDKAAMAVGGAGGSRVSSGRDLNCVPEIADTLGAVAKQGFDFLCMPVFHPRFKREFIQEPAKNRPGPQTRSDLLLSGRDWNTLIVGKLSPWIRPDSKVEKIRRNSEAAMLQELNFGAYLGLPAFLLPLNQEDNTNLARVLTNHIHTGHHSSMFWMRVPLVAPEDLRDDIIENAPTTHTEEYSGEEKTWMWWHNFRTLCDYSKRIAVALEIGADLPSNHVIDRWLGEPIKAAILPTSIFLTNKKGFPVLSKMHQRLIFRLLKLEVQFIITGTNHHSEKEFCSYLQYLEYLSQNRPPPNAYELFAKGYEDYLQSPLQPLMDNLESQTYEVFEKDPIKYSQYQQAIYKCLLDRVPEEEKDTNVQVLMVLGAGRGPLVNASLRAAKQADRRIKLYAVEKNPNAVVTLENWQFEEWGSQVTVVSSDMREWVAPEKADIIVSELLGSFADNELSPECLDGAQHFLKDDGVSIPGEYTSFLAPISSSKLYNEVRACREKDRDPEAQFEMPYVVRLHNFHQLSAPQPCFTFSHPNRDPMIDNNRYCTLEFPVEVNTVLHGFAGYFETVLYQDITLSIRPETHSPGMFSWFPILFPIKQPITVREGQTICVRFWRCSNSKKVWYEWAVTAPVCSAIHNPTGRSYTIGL
Chain of PRMT5/MEP50 (Q9BQA1 other isoform, or with tags, fused parts or gaps partner): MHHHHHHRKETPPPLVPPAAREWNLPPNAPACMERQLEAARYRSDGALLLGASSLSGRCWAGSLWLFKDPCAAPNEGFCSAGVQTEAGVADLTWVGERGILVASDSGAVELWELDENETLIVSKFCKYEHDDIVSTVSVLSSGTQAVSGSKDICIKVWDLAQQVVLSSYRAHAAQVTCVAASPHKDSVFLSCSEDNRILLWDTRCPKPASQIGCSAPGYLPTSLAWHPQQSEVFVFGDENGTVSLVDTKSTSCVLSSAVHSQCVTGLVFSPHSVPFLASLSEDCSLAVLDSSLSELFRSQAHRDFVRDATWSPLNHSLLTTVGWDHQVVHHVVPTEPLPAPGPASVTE
Description: S-adenosylmethionine (SAM), S-adenosylhomocysteine (SAH), bicine, KCl, Tween20, dimethylsulfoxide (DMSO), bovine skin gelatin (BSG), and Tris(2-carboxyethyl)phosphine hydrochloride solution (TCEP) were purchased from Sigma-Aldrich at the highest level of purity possible. ^3H-SAM was purchase from American Radiolabeled Chemicals with a specific activity of 80 Ci/mmol. 384-well streptavidin Flashplates were purchased from PerkinElmer.
Peptide representative of human histone H4 residues 1-15 was synthesized with a C-terminal linker-affinity tag motif and a C-terminal amide cap by 21st Century Biochemicals.
The amplified genes were sublconed into pENTR/D/TEV (Life Technologies) and subsequently transferred by Gateway™ attL×attR recombination to pDEST8 baculovirus expression vector (Life Technologies).
Protein over-expression was accomplished by infecting exponentially growing Spodoptera frugiperda (SF9) cell culture at 1.2×10^6 cell/ml with a 5000 fold dilution of BIIC stock. Infections were carried out at 27° C. for 72 hours, harvested by centrifugation, and stored at −80° C. for purification.
Flag-PRMT5/6His-MeP50 was eluted with 300 mM Imidazole in the same buffer.
General Procedure for PRMT5/MEP50 Enzyme Assays on Peptide Substrates.
The assays were all performed in a buffer consisting of 20 mM Bicine (pH=7.6), 1 mM TCEP, 0.005% BSG, and 0.002% Tween20, prepared on the day of use. […] DMSO (1 ul) was added to Columns 11, 12, 23, 24, rows A-H for the maximum signal control and 1 ul of SAH, a known product and inhibitor of PRMT5/MEP50, was added to columns 11, 12, 23, 24, rows I-P for the minimum signal control. A cocktail (40 ul) containing the PRMT5/MEP50 enzyme and the peptide was added by Multidrop Combi (Thermo-Fisher). The compounds were allowed to incubate with PRMT5/MEP50 for 30 min at 25 degrees Celsius, then a cocktail (10 ul) containing ^3H-SAM was added to initiate the reaction (final volume=51 ul). […] The assays were stopped by the addition of non-radioactive SAM (10 ul) to a final concentration of 600 uM, which dilutes the ^3H-SAM to a level where its incorporation into the peptide substrate is no longer detectable. 50 ul of the reaction in the 384-well polypropylene plate was then transferred to a 384-well Flashplate and the biotinylated peptides were allowed to bind to the streptavidin surface for at least 1 hour before being washed three times with 0.1% Tween20 in a Biotek ELx405 plate washer. The plates were then read in a PerkinElmer TopCount plate reader to measure the quantity of ^3H-labeled peptide bound to the Flashplate surface, measured as disintegrations per minute (dpm) or alternatively, referred to as counts per minute (cpm).
[formula] [formula] Where dpm=disintegrations per minute, cmpd=signal in assay well, and min and max are the respective minimum and maximum signal controls.
[formula] [formula] Where top and bottom are the normally allowed to float, but may be fixed at 100 or 0 respectively in a 3-parameter fit. The Hill Coefficient normally allowed to float but may also be fixed at 1 in a 3-parameter fit. Y is the % inhibition and X is the compound concentration.

[4] = 120 h, Z-138 cells, 5 days, Cell Titer Glo

EC50 ([2]; In Cell Western methylation) [nM] | IC50 ([3]; PRMT5 biochemical assay) [nM] | EC50 [2] [nM] | IC50 [3] [nM] | Compound | EC50 [1, 4] [nM] | EC50 ([1]; 120 h, Z-138 cells, 5 days) [nM] | EC50 ([1]; Z-138, 120 h) [nM]
< 100 | < 100 |  |  | O=C(NC[C@H](O)CN1CCc2ccccc2C1)c1cc(N[C@H]2CC[C@H](O)CC2)ncn1 [Compound 585] | 101 to 1000 |  | 
< 100 | < 100 |  |  | CSCCNc1cc(C(=O)NC[C@H](O)CN2CCc3ccccc3C2)ncn1 [Compound 554] | 101 to 1000 |  | 
< 100 | < 100 |  |  | CC(=O)[C@H]1CC[C@@H](Nc2cc(C(=O)NC[C@H](O)CN3CCc4ccccc4C3)ncn2)CC1 [Compound 615] | < 100 |  | 
 |  | 101 to 1000 | 101 to 1000 | CS(=O)(=O)Nc1ccc(C(=O)NCC(O)CN2CCc3ccccc3C2)cc1 (stereo not drawn) [Compound 31] |  | 10000 to 50000 | 
101 to 1000 | 101 to 1000 |  |  | CC(O)(CNC(=O)c1cc(NC2COC2)ncn1)CN1CCc2ccccc2C1 (stereo not drawn) [Compound 646] | > 20000 |  | 
101 to 1000 | 101 to 1000 |  |  | CC(=O)N1CCC(Nc2cc(C(=O)NCC(F)CN3CCc4ccccc4C3)ncn2)CC1 (stereo not drawn) [Compound 656] | > 5000 |  | 
< 100 | < 100 |  |  | O=C(NC[C@H](O)CN1CCc2ccccc2C1)c1cc(NC2COC2)nc(N2CCNCC2)n1 [Compound 461] | < 100 |  | 
 |  | < 100 | < 100 | O=C(NC[C@H](O)CN1CCc2ccccc2C1)c1ccc(OCCN2CCCCC2)cc1 [Compound 371] |  | 1000 to 10000 | 
 |  | < 100 | < 100 | CNCCOc1ccc(C(=O)NC[C@H](O)CN2CCc3ccccc3C2)cc1 [Compound 386] |  | 1000 to 10000 | 
< 100 | < 100 |  |  | O=C(NC[C@H](O)CN1CCc2ccccc2C1)c1cc(NC2CN(C(=O)C3CCC3)C2)ccn1 [Compound 577] | < 100 |  | 
 |  | < 100 | < 100 | O=C(NC[C@H](O)CN1CCc2ccccc2C1)c1ccnc(Nc2ccccn2)c1 [Compound 382] |  | 101 to 1000 | 
< 100 | < 100 |  |  | CC(=O)N1CC(Nc2ccnc(C(=O)NC[C@H](O)CN3CCc4ccccc4C3)c2)C1 [Compound 635] | < 100 |  | 
< 100 | < 100 |  |  | CC(=O)N1CC[C@H](Nc2cc(C(=O)NC[C@H](O)CN3CCc4ccccc4C3)ncn2)C1 [Compound 582] | 1000 to 10000 |  | 
< 100 | < 100 |  |  | CC(=O)N1CC(Nc2cc(C(=O)NC[C@H](O)CN3CCc4cc(C)ccc4C3)ncn2)C1 [Compound 674] | 1000 to 10000 |  | 
 |  | 101 to 1000 | 1000 to 10000 | CN(C[C@H](O)CN1CCc2ccccc2C1)C(=O)c1ccnc(N(C)C2CCOCC2)c1 [Compound 358] |  | > 20000 | 
< 100 | < 100 |  |  | CC(C)C(=O)N1CCN(c2nc(NC3COC3)cc(C(=O)NC[C@H](O)CN3CCc4ccccc4C3)n2)CC1 [Compound 463] | < 100 |  | 
101 to 1000 | 101 to 1000 |  |  | CC(=O)N1CC(Nc2cc(C(=O)NC(C)C(O)CN3CCc4ccccc4C3)ncn2)C1 (stereo not drawn) [Compound 524] | > 5000 |  | 
< 100 | < 100 |  |  | COC(CNC(=O)c1ccnc(NC2CCN(C(C)=O)CC2)c1)CN1CCc2ccccc2C1 (stereo not drawn) [Compound 691] | 1000 to 10000 |  | 
< 100 | < 100 |  |  | CC(=O)N1CCC(Nc2cc(C(=O)NC[C@H](O)CN3CCc4ccccc4C3C)ccn2)CC1 (stereo partly drawn) [Compound 694] | 101 to 1000 |  | 
1000 to 10000 | < 100 |  |  | NC(=O)CN1CC(Nc2cc(C(=O)NC[C@H](O)CN3CCc4ccccc4C3)ncn2)C1 [Compound 621] | 1000 to 10000 |  | 

EC50 ([2]; In Cell Western methylation) [nM] | IC50 ([3]; PRMT5 biochemical assay) [nM] | EC50 [2] [nM] | IC50 [3] [nM] | Compound | EC50 [1, 4] [nM] | EC50 ([1]; 120 h, Z-138 cells, 5 days) [nM] | EC50 ([1]; Z-138, 120 h) [nM]
 |  | 101 to 1000 | 101 to 1000 | CN(C)C(=O)CNCCOc1cccc(C(=O)NCC(O)CN2CCc3ccccc3C2)c1 (stereo not drawn) [Compound 340] |  | > 20000 | 
 |  | 101 to 1000 | 101 to 1000 | CN(C[C@H](O)CN1CCc2ccccc2C1)C(=O)c1cc(NC2COC2)ncn1 [Compound 364] |  | 1000 to 10000 | 
< 100 | < 100 |  |  | O=C(NC[C@H](O)CN1CCc2ccccc2C1)c1cc(N[C@H]2CC[C@@H](C(=O)N3CCOCC3)CC2)ncn1 [Compound 599] | 1000 to 10000 |  | 
< 100 | < 100 |  |  | COCC(=O)N1CC(Nc2cc(C(=O)NC[C@H](O)CN3CCc4ccccc4C3)ncn2)C1 [Compound 531] | 101 to 1000 |  | 
< 100 | < 100 |  |  | CC(CNC(=O)c1cc(NC2COC2)ncn1)CN1CCc2ccccc2C1 (stereo not drawn) [Compound 657] | > 5000 |  | 
< 100 | < 100 |  |  | CC(=O)N1CCC(Nc2cc(C(=O)NC[C@H](O)CN3CCc4cccc(C)c4C3)ncn2)CC1 [Compound 664] | 101 to 1000 |  | 
101 to 1000 | 101 to 1000 |  |  | CC1c2ccccc2CCN1C[C@@H](O)CNC(=O)c1cc(NC2COC2)ncn1 (stereo partly drawn) [Compound 573] | > 5000 |  | 
< 100 | < 100 |  |  | CC(=O)N1CCC(Nc2cc(C(=O)NCCCN3CCc4ccccc4C3)ncn2)CC1 [Compound 653] | 1000 to 10000 |  | 
< 100 | < 100 |  |  | CC(C)CC(=O)N1CCC(Nc2cc(C(=O)NC[C@H](O)CN3CCc4ccccc4C3)ncn2)CC1 [Compound 409] | < 100 |  | 
< 100 | < 100 |  |  | CC(C)N1CCN(c2nc(NC3COC3)cc(C(=O)NC[C@H](O)CN3CCc4ccccc4C3)n2)CC1 [Compound 478] | < 100 |  | 
> 1000 | 101 to 1000 |  |  | CC(C)(O)CNCC1CN2C=NC(C(=O)NC[C@H](O)CN3CCc4ccccc4C3)=CC2=N1 (stereo partly drawn) [Compound 603] | 1000 to 10000 |  | 
 |  | < 100 | < 100 | O=C(NC[C@H](O)CN1CCc2ccccc2C1)c1cncc(OC2CCN(CC(F)(F)F)CC2)c1 [Compound 289] |  | 101 to 1000 | 
< 100 | < 100 |  |  | CN(CCO)c1nc(NC2COC2)cc(C(=O)NC[C@H](O)CN2CCc3ccccc3C2)n1 [Compound 495] | 101 to 1000 |  | 
101 to 1000 | 101 to 1000 |  |  | O=C(NC[C@H](O)CN1CCc2ccccc2C1)c1cnnc(OC2CCN(CC(F)(F)F)CC2)c1 [Compound 626] | 1000 to 10000 |  | 
101 to 1000 | 101 to 1000 |  |  | CC(=O)N1CC(Nc2cc(C(=O)NCC(F)CN3CCc4ccccc4C3)ncn2)C1 (stereo not drawn) [Compound 655] | > 5000 |  | 
1000 to 10000 | < 100 |  |  | CNC(=O)CN1CC(Nc2cc(C(=O)NC[C@H](O)CN3CCc4ccccc4C3)ncn2)C1 [Compound 622] | 1000 to 10000 |  | 
< 100 | < 100 |  |  | O=C(NC[C@H](O)CN1CCc2ccccc2C1)c1cc(NC2COC2)nc(N2CCC2)n1 [Compound 526] | 101 to 1000 |  | 
< 100 | < 100 |  |  | CCN1CCN(c2nc(NC3COC3)cc(C(=O)NC[C@H](O)CN3CCc4ccccc4C3)n2)CC1 [Compound 477] | < 100 |  | 
 |  | < 100 | < 100 | O=C(NC[C@H](O)CN1CCc2ccccc2C1)c1ccnc(Nc2cc[nH]n2)c1 [Compound 381] |  | 1000 to 10000 | 

Compound | EC50 ([2]; In Cell Western methylation) [nM] | IC50 ([3]; PRMT5 biochemical assay) [nM] | EC50 [2] [nM] | IC50 [3] [nM] | EC50 [1, 4] [nM] | EC50 ([1]; 120 h, Z-138 cells, 5 days) [nM] | EC50 ([1]; Z-138, 120 h) [nM]
CC(=O)Nc1cccc(C(=O)NCC(O)CN2CCc3ccccc3C2)c1 (stereo not drawn) [Compound 26] |  |  | 101 to 1000 | 101 to 1000 |  | 10000 to 50000 | 
CCSCCN1CCC(Nc2cc(C(=O)NC[C@H](O)CN3CCc4ccccc4C3)ncn2)CC1 [Compound 570] | < 100 | < 100 |  |  |  |  | 1000 to 10000
